Results reported in US8710043B2, “TRPM8 antagonists and their use in treatments” (Amgen Inc., priority 2011, dated 2014).

target: T1, human TRPM8 (Homo sapiens, UniProt Q7Z2W7); test: Luminescence readout assay for measuring intracellular calcium, icilin activation; format: cell-based; settings: CHO cells expressing human TRPM8, aequorin luminescence, 1 μM icilin activation; read-out: hTRPM8 IC50
T1 construct: expressed in transfected cells; host or cells: Chinese hamster ovary (CHO) cells, T-REx tetracycline-inducible system, co-transfected with aequorin
T1 sequence (Q7Z2W7 whole entry): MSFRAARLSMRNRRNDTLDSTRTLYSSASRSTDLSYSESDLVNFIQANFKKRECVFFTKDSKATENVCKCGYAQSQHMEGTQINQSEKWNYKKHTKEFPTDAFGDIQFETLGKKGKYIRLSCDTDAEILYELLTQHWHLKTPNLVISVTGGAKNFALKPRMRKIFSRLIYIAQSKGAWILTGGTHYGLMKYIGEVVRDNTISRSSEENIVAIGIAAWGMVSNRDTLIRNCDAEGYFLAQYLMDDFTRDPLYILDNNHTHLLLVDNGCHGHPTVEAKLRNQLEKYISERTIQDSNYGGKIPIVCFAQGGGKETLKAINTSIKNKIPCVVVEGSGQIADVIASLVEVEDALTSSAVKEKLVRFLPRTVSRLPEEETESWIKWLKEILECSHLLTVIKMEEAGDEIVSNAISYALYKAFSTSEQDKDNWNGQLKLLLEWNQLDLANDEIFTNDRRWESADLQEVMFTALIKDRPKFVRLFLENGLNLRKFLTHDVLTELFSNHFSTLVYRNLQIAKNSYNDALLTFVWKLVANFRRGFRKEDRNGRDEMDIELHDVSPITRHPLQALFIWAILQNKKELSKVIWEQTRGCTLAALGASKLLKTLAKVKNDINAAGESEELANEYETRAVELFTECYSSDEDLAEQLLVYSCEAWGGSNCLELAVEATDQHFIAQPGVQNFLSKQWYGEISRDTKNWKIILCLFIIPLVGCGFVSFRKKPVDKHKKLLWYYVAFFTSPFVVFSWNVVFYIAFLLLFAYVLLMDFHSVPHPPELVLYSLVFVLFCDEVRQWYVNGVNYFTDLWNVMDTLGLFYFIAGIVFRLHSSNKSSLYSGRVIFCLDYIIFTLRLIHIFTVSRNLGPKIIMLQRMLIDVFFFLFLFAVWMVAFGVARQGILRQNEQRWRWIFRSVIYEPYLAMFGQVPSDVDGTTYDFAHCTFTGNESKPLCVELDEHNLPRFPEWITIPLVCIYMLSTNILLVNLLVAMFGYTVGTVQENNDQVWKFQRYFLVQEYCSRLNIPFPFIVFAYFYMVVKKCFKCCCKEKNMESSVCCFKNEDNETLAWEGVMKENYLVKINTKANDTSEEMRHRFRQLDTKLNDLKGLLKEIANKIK
How it was run: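 The read-out was luminescence reporting intracellular calcium, recorded by a CCD-based luminometer. Compounds were preincubated for 2.5 min before agonist challenge with 1 μM icilin. Human TRPM8 was expressed in a stable T-REx CHO line, induced with 0.5 μg/mL tetracycline the day before.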

IC50 [µM] | SMILES
0.0136 | Cc1cccnc1[C@@H](NC(=O)c1ccc(=O)[nH]c1)c1ccc(OC(F)(F)F)cc1 [Example 359, (S)-N-((3-methylpyridin-2-yl)(4-(trifluoromethoxy)phenyl)methyl)-6-oxo-1,6-dihydropyridine-3-carboxamide]
0.02 | Cc1cccnc1[C@@H](NC(=O)c1ccc(=O)n(C)c1)c1ccc(OC(F)(F)F)cc1 [Example 360, (S)-1-methyl-N-((3-methylpyridin-2-yl)(4-(trifluoromethoxy)phenyl)methyl)-6-oxo-1,6-dihydropyridine-3-carboxamide]
0.0058 | O=C(N[C@@H](c1ccc(C(F)(F)F)cc1)c1ccccn1)c1ccc2oc(=O)[nH]c2c1 [Example 361, (S)-2-oxo-N-(pyridin-2-yl(4-(trifluoromethyl)phenyl)methyl)-2,3-dihydrobenzo[d]oxazole-5-carboxamide]
0.0295 | C=Cc1cccnc1[C@@H](NC(=O)c1ccc(=O)[nH]c1)c1ccc(C(F)(F)F)cc1 [Example 363, (S)-6-oxo-N-((4-(trifluoromethyl)phenyl)(3-vinylpyridin-2-yl)methyl)-1,6-dihydropyridine-3-carboxamide]
0.0158 | CCn1cc(C(=O)N[C@@H](c2ccc(C(F)(F)F)cc2)c2ncccc2F)ccc1=O [Example 364, (S)-1-ethyl-N-((3-fluoropyridin-2-yl)(4-(trifluoromethyl)phenyl)methyl)-6-oxo-1,6-dihydropyridine-3-carboxamide]
0.0401 | CCn1cc(C(=O)N[C@@H](c2ccc(Cl)c(Cl)c2)c2ncccc2F)ccc1=O [Example 365, (S)-N-((3,4-dichlorophenyl)(3-fluoropyridin-2-yl)methyl)-1-ethyl-6-oxo-1,6-dihydropyridine-3-carboxamide]
0.0097 | CCn1cc(C(=O)N[C@@H](c2ccc(OC(F)(F)F)c(F)c2)c2ncccc2F)ccc1=O [Example 366, (S)-1-ethyl-N-((3-fluoro-4-(trifluoromethoxy)phenyl)(3-fluoropyridin-2-yl)methyl)-6-oxo-1,6-dihydropyridine-3-carboxamide]
0.0683 | CC(C)n1cc(C(=O)N[C@@H](c2ccc(C(F)(F)F)cc2)c2ncccc2F)ccc1=O [Example 367, (S)-N-((3-fluoropyridin-2-yl)(4-(trifluoromethyl)phenyl)methyl)-1-isopropyl-6-oxo-1,6-dihydropyridine-3-carboxamide]
0.021 | O=C(N[C@@H](c1ccc(C(F)(F)F)cc1)c1ncccc1F)c1c[nH]c(=O)c(Br)c1 [Example 368, (S)-5-bromo-N-((3-fluoropyridin-2-yl)(4-(trifluoromethyl)phenyl)methyl)-6-oxo-1,6-dihydropyridine-3-carboxamide]
3.71 | COn1cc(C(=O)N[C@@H](c2ccc(C(F)(F)F)cc2)c2ncccc2F)ccc1=O [Example 369, (S)-N-((3-fluoropyridin-2-yl)(4-(trifluoromethyl)phenyl)methyl)-1-methoxy-6-oxo-1,6-dihydropyridine-3-carboxamide]
0.19 | O=C(N[C@@H](c1ccc(C(F)(F)F)cc1)c1ncccc1F)c1ccc(=O)n(Cc2ccccc2)c1 [Example 371, (S)-1-benzyl-N-((3-fluoropyridin-2-yl)(4-(trifluoromethyl)phenyl)methyl)-6-oxo-1,6-dihydropyridine-3-carboxamide]
0.0894 | O=C(N[C@@H](c1ccc(C(F)(F)F)cc1)c1ncccc1F)c1ccc(=O)n(CC(F)(F)F)c1 [Example 372, (S)-N-((3-fluoropyridin-2-yl)(4-(trifluoromethyl)phenyl)methyl)-6-oxo-1-(2,2,2-trifluoroethyl)-1,6-dihydropyridine-3-carboxamide]
0.0524 | O=C(N[C@@H](c1ccc(OC(F)(F)F)cc1)c1ncccc1F)c1cccs1 [Example 374, (S)-N-((3-fluoropyridin-2-yl)(4-(trifluoromethoxy)phenyl)methyl)thiophene-2-carboxamide]
0.0303 | O=C(N[C@@H](c1ccc(C(F)(F)F)cc1)c1ncccc1F)c1cccs1 [Example 375, (S)-N-((3-fluoropyridin-2-yl)(4-(trifluoromethyl)phenyl)methyl)thiophene-2-carboxamide]
0.0503 | Cn1cc(C(=O)N[C@@H](c2ccc(OC(F)(F)F)cc2)c2ccccn2)ccc1=O [Example 378, (S)-1-methyl-6-oxo-N-(pyridin-2-yl(4-(trifluoromethoxy)phenyl)methyl)-1,6-dihydropyridine-3-carboxamide]
0.27 | Cc1ccc([C@H](NC(=O)c2ccc(=O)[nH]c2)c2ncccc2F)cc1 [Example 379, (S)-N-((3-fluoropyridin-2-yl)(p-tolyl)methyl)-6-oxo-1,6-dihydropyridine-3-carboxamide]
0.245 | Cc1ccc([C@H](NC(=O)c2ccc(=O)[nH]c2)c2ncccc2F)cc1C [Example 380, (S)-N-((3,4-dimethylphenyl)(3-fluoropyridin-2-yl)methyl)-6-oxo-1,6-dihydropyridine-3-carboxamide]

IC50 [µM] | SMILES
0.0104 | Cc1cc([C@H](NC(=O)c2ccc(=O)[nH]c2)c2ncccc2F)ccc1OC(F)(F)F [Example 381, (S)-N-((3-fluoropyridin-2-yl)(3-methyl-4-(trifluoromethoxy)phenyl)methyl)-6-oxo-1,6-dihydropyridine-3-carboxamide]
0.0069 | O=C(N[C@@H](c1ccc(OC(F)(F)F)c(F)c1)c1ncccc1Br)c1ccc(=O)[nH]c1 [Example 382, (S)-N-((3-bromopyridin-2-yl)(3-fluoro-4-(trifluoromethoxy)phenyl)methyl)-6-oxo-1,6-dihydropyridine-3-carboxamide]
0.0079 | O=C(N[C@@H](c1ccc(OC(F)(F)F)c(F)c1)c1ncccc1C(F)(F)F)c1ccc(=O)[nH]c1 [Example 383, (S)-N-((3-fluoro-4-(tritluoromethoxy)phenyl)(3-(trifluoromethyl)pyridin-2-yl)methyl)-6-oxo-1,6-dihydropyridine-3-carboxamide]
0.0058 | O=C(N[C@@H](c1ccc(OC(F)(F)F)c(F)c1)c1ncccc1Br)c1ccc2oc(=O)[nH]c2c1 [Example 384, (S)-N-((3-bromopyridin-2-yl)(3-fluoro-4-(trifluoromethoxy)phenyl)methyl)-2-oxo-2,3-dihydrobenzo[d]oxazole-5-carboxamide]
0.0067 | O=C(N[C@@H](c1ccc(OC(F)(F)F)c(F)c1)c1ncccc1C(F)(F)F)c1ccc2oc(=O)[nH]c2c1 [Example 385, (S)-N-((3-fluoro-4-(trifluoromethoxy)phenyl)(3-(trifluoromethyl)pyridin-2-yl)methyl)-2-oxo-2,3-dihydrobenzo[d]oxazole-5-carboxamide]
0.279 | Cn1ccnc1C(=O)N[C@@H](c1ccc(OC(F)(F)F)c(F)c1)c1ncccc1F [Example 387, (S)-N-((3-fluoro-4-(trifluoromethoxy)phenyl)(3-fluoropyridin-2-yl)methyl)-1-methyl-1H-imidazole-2-carboxamide 2,2,2-trifluoroacetate]
2.98 | Cc1c[nH]c(C(=O)N[C@@H](c2ccc(OC(F)(F)F)c(F)c2)c2ncccc2F)n1 [Example 388, (S)-N-((3-fluoro-4-(trifluoromethoxy)phenyl)(3-fluoropyridin-2-yl)methyl)-4-methyl-1H-imidazole-2-carboxamide 2,2,2-trifluoroacetate]
0.0183 | O=C(N[C@@H](c1ccc(OC(F)(F)F)c(F)c1)c1ncccc1F)c1ccc(O)cn1 [Example 389, (S)-N-((3-fluoro-4-(trifluoromethoxy)phenyl)(3-fluoropyridin-2-yl)methyl)-5-hydroxypicolinamide 2,2,2-trifluoroacetate]
0.136 | CC(=O)Nc1ccc(C(=O)N[C@@H](c2ccc(OC(F)(F)F)c(F)c2)c2ncccc2F)cc1O [Example 390, (S)-4-acetamido-N-((3-fluoro-4-(trifluoromethoxy)phenyl)(3-fluoropyridin-2-yl)methyl)-3-hydroxybenzamide]
0.0117 | O=C(N[C@@H](c1ccc(OC(F)(F)F)c(F)c1)c1ccccn1)c1ccc2[nH]c(=O)oc2c1 [Example 391, (S)-N-((3-fluoro-4-(trifluoromethoxy)phenyl)(pyridin-2-yl)methyl)-2-oxo-2,3-dihydrobenzo[d]oxazole-6-carboxamide]
0.0076 | O=C(N[C@@H](c1ccc(C(F)(F)F)cc1)c1ncccc1F)c1ccc2[nH]cnc2c1 [Example 392, (S)-N-((3-fluoropyridin-2-yl)(4-(trifluoromethyl)phenyl)methyl)-1H-benzo[d]imidazole-5-carboxamide]
0.0061 | O=C(N[C@@H](c1ccc(OC(F)(F)F)c(F)c1)c1ccccn1)c1ccc2[nH]cnc2c1 [Example 393, (S)-N-((3-fluoro-4-(trifluoromethoxy)phenyl)(pyridin-2-yl)methyl)-1H-benzo[d]imidazole-5-carboxamide]
0.0354 | Cn1cnc2cc(C(=O)N[C@@H](c3ccc(C(F)(F)F)cc3)c3ncccc3F)ccc21 [Example 394, (S)-N-((3-fluoropyridin-2-yl)(4-(trifluoromethyl)phenyl)methyl)-1-methyl-1H-benzo[d]imidazole-5-carboxamide]
0.0066 | Cn1cnc2ccc(C(=O)N[C@@H](c3ccc(C(F)(F)F)cc3)c3ncccc3F)cc21 [Example 395, (S)-N-((3-fluoropyridin-2-yl)(4-(trifluoromethyl)phenyl)methyl)-1-methyl-1H-benzo[d]imidazole-6-carboxamide]
0.0201 | O=C(N[C@@H](c1ccc(C(F)(F)F)cc1)c1ncccc1F)c1ccc(=O)n(C(F)F)c1 [Example 396, (S)-1-(difluoromethyl)-N-((3-fluoropyridin-2-yl)(4-(trifluoromethyl)phenyl)methyl)-6-oxo-1,6-dihydropyridine-3-carboxamide]
0.0103 | Cc1nc2cc(C(=O)N[C@@H](c3ccc(C(F)(F)F)cc3)c3ncccc3F)ccc2[nH]1 [Example 397, (S)-N-((3-fluoropyridin-2-yl)(4-(trifluoromethyl)phenyl)methyl)-2-methyl-1H-benzo[d]imidazole-5-carboxamide]
